Test results taken from US11708348B2, “Protease inhibitors for treatment of coronavirus infections” (The Scripps Research Institute, priority 2021, dated 2023).
Where a name gives a salt, the structure may show the parent alone.

Tested on: SARS-CoV-2 strain USA-WA1/2020
Experiment: microbe, parasite or virus in culture
Assay type: cell-based
Conditions: Severe acute respiratory syndrome coronavirus 2, HeLa-ACE2, 24 h, HeLa-ACE2 cells, SARS-CoV-2 infection, 24 h; cells given as a bound; read-out: EC50, uM (Hela)

`CC(C)C[C@H](NC(=O)O[C@@H]1CCOC1)C(=O)N[C@@H](C[C@@H]1CCNC1=O)C(=O)COc1c(F)c(F)cc(F)c1F` [Compound 126, (R)-tetrahydrofuran-3-yl ((S)-4-methyl-1-oxo-1-(((S)-3-oxo-1-((S)-2-oxopyrrolidin-3-yl)-4-(2,3,5,6-tetrafluorophenoxy)butan-2-yl)amino)pentan-2-yl)carbamate] and `CC(C)C[C@H](NC(=O)OC/C=C/c1cccc(Cl)c1)C(=O)N[C@@H](C[C@@H]1CCNC1=O)C(=O)COc1c(F)c(F)cc(F)c1F` [Compound 139, (E)-3-(3-chlorophenyl)allyl ((S)-4-methyl-1-oxo-1-(((S)-3-oxo-1-((S)-2-oxopyrrolidin-3-yl)-4-(2,3,5,6-tetrafluorophenoxy)butan-2-yl)amino)pentan-2-yl)carbamate] cannot be ordered by EC50: greater than 1 µM for the first, greater than 1 µM for the second.

Same assay, conditions: Severe acute respiratory syndrome coronavirus 2, HeLa-ACE2, 24 h, HeLa-ACE2 cells, SARS-CoV-2 infection, 24 h; class symbols; read-out: EC50, uM (Hela)

First: CC(C)C[C@H](NC(=O)C(=O)NC1(C)CC1)C(=O)N[C@@H](C[C@@H]1CCNC1=O)C(=O)COc1c(F)c(F)cc(F)c1F [Compound 99, N1-((S)-4-methyl-1-oxo-1-(((S)-3-oxo-1-((S)-2-oxopyrrolidin-3-yl)-4-(2,3,5,6-tetrafluorophenoxy)butan-2-yl)amino)pentan-2-yl)-N2-(1-methyl-cyclopropyl)oxalamide]
Second: CC(C)C[C@H](NC(=O)C1CCN(C(=O)C2CCCC2)CC1)C(=O)N[C@@H](C[C@@H]1CCNC1=O)C(=O)COc1c(F)c(F)cc(F)c1F [Compound 25, l-(cyclopentane-carbonyl)-N-((S)-4-methyl-1-oxo-1-(((S)-3-oxo-1-((S)-2-oxopyrrolidin-3-yl)-4-(2,3,5,6-tetrafluorophenoxy)butan-2-yl)amino)pentan-2-yl)piperidine-4-carboxamide]
The EC50 of the first is lower: 0.05 to 0.2 µM for the first, 0.5 to 1 µM for the second. The first is the more potent here.

`CC(C)C[C@H](NC(=O)c1cc(-c2ccccc2F)on1)C(=O)N[C@@H](C[C@@H]1CCNC1=O)C(=O)COc1c(F)c(F)cc(F)c1F` [Compound 67, 5-(2-fluorophenyl)-N-((S)-4-methyl-1-oxo-1-(((S)-3-oxo-1-((S)-2-oxopyrrolidin-3-yl)-4-(2,3,5,6-tetrafluorophenoxy)butan-2-yl)amino)pentan-2-yl)isoxazole-3-carboxamide] and `CC(C)C[C@H](NC(=O)C(Nc1ccccc1F)C(F)(F)F)C(=O)N[C@@H](C[C@@H]1CCNC1=O)C(=O)COc1c(F)c(F)cc(F)c1F` (stereo partly drawn) [Compound 97, (2S)-4-methyl-N-((S)-3-oxo-1-((S)-2-oxopyrrolidin-3-yl)-4-(2,3,5,6-tetrafluorophenoxy)butan-2-yl)-2-(3,3,3-trifluoro-2-((2-fluorophenyl)-amino)propanamido)-pentanamide] fall in the same range of EC50: 0.2 to 0.5 µM for the first, 0.2 to 0.5 µM for the second.

`CC(C)(C)C[C@H](NC(=O)C(=O)NC12CC(F)(C1)C2)C(=O)N[C@@H](C[C@@H]1CCNC1=O)C(=O)COC(F)(F)F` [Compound 226, N1-((S)-4,4-dimethyl-1-oxo-1-(((S)-3-oxo-1-((S)-2-oxopyrrolidin-3-yl)-4-(trifluoromethoxy)butan-2-yl)amino)pentan-2-yl)-N2-(3-fluorobicyclo[1.1.1]-pentan-1-yl)oxalamide] and `CC(C)C[C@H](NC(=O)OCc1cccc(Cl)c1)C(=O)N[C@@H](C[C@@H]1CCNC1=O)C(=O)COC(F)(F)F` [Compound 199, 3-chlorobenzyl ((S)-4-methyl-1-oxo-1-(((S)-3-oxo-1-((S)-2-oxopyrrolidin-3-yl)-4-(trifluoromethoxy)butan-2-yl)amino)pentan-2-yl)carbamate] cannot be ordered by EC50: less than 0.05 µM for the first, less than 0.05 µM for the second.

Work on `O=C(Nc1ccccc1F)C(=O)N1C[C@@H]2CCC[C@@H]2[C@H]1C(=O)N[C@@H](C[C@@H]1CCNC1=O)C(=O)COC(F)(F)F` [Compound 256, (1S,3aR,6aS)-2-(2-((2-fluorophenyl)amino)-2-oxoacetyl)-N—((S)-3-oxo-1-((S)-2-oxopyrrolidin-3-yl)-4-(trifluoromethoxy)butan-2-yl)octahydrocyclopenta[c]pyrrole-1-carboxamide] yielded an EC50 of less than 0.05 µM.

Same assay, conditions: Severe acute respiratory syndrome coronavirus 2, HeLa-ACE2, 24 h, HeLa-ACE2 cells, SARS-CoV-2 infection, 24 h; given as bound; read-out: EC50, uM (Hela)

Molecule `CC(C)(F)c1cc(C(=O)N2C=C3C[C@@H]3[C@H]2C(=O)N[C@@H](C[C@@H]2CCNC2=O)C(=O)COC(F)(F)F)no1` [Compound 501, (1S,2S)-3-(5-(2-fluoropropan-2-yl)isoxazole-3-carbonyl)-N-((S)-3-oxo-1-((S)-2-oxopyrrolidin-3-yl)-4-(trifluoromethoxy)butan-2-yl)-3-azabicyclo[3.1.0]hex-4-ene-2-carboxamide] has an EC50 greater than 1 µM.

Same assay, conditions: Severe acute respiratory syndrome coronavirus 2, HeLa-ACE2, 24 h, HeLa-ACE2 cells, SARS-CoV-2 infection, 24 h; read-out: EC50, uM (Hela)

`CC(C)(NC(=O)C(=O)N1Cc2ccccc2C[C@H]1C(=O)N[C@@H](C[C@@H]1CCNC1=O)C(=O)COC(F)(F)F)C(F)(F)F` [Compound 472, (S)-N-((S)-3-oxo-1-((S)-2-oxopyrrolidin-3-yl)-4-(trifluoromethoxy)butan-2-yl)-2-(2-oxo-2-((1,1,1-trifluoro-2-methylpropan-2-yl)amino)acetyl)-1,2,3,4-tetrahydro-isoquinoline-3-carboxamide] and `CC(C)(C)NC(=O)C(=O)N1CC2(CC1C(=O)N[C@@H](C[C@@H]1CCNC1=O)C(=O)COC(F)(F)F)CC(F)(F)C2` (stereo partly drawn) [Compound 508, 6-(2-(tert-butylamino)-2-oxoacetyl)-2,2-difluoro-N-((S)-3-oxo-1-((S)-2-oxopyrrolidin-3-yl)-4-(trifluoromethoxy)butan-2-yl)-6-azaspiro[3.4]octane-7-carboxamide] fall in the same range of EC50: 0.05 to 0.2 µM for the first, 0.05 to 0.2 µM for the second.

First: O=C1NCC[C@H]1C[C@H](NC(=O)[C@@H]1CC2(CC2)CN1C(=O)[C@H](O)C/C=C/c1ccc(F)cc1)C(=O)COC(F)(F)F [Compound 667, (S)-5-((R,E)-5-(4-fluorophenyl)-2-hydroxypent-4-enoyl)-N-((S)-3-oxo-1-((S)-2-oxopyrrolidin-3-yl)-4-(trifluoromethoxy)butan-2-yl)-5-azaspiro[2.4]heptane-6-carboxamide]
Second: O=C1NCC[C@H]1C[C@H](NC(=O)[C@@H]1CC2(CC2)CN1C(=O)C(O)c1ccc(F)cc1F)C(=O)COC(F)(F)F (stereo partly drawn) [Compound 402, (6S)-5-(2-(2,4-difluorophenyl)-2-hydroxyacetyl)-N-((S)-3-oxo-1-((S)-2-oxopyrrolidin-3-yl)-4-(trifluoromethoxy)butan-2-yl)-5-azaspiro[2.4]heptane-6-carboxamide]
The EC50 of the first is higher: 0.05 to 0.2 µM for the first, less than 0.05 µM for the second.

`CC(C)(F)c1cc(C(=O)N2C[C@H]3[C@@H]([C@H]2C(=O)N[C@@H](C[C@@H]2CCNC2=O)C(=O)COC(F)(F)F)C3(C)C)no1` [Compound 478, (1R,2S,5S)-3-(5-(2-fluoropropan-2-yl)isoxazole-3-carbonyl)-6,6-dimethyl-N-((S)-3-oxo-1-((S)-2-oxopyrrolidin-3-yl)-4-(trifluoromethoxy)butan-2-yl)-3-azabicyclo[3.1.0]hexane-2-carboxamide] and `O=C1NCC[C@H]1C[C@@H](NC(=O)[C@@H]1[C@H]2CCC[C@H]2CN1C(=O)c1cc2cc(F)ccc2[nH]1)C(=O)COC(F)(F)F` [Compound 604, (1S,3aR,6aS)-2-(5-fluoro-1H-indole-2-carbonyl)-N-((R)-3-oxo-1-((S)-2-oxopyrrolidin-3-yl)-4-(trifluoromethoxy)butan-2-yl)octahydrocyclopenta[c]pyrrole-1-carboxamide] cannot be ordered by EC50: less than 0.05 µM for the first, less than 0.05 µM for the second.

First: CC1(C[C@H](NC(=O)C(=O)NC23CC(F)(C2)C3)C(=O)N[C@@H](C[C@@H]2CCNC2=O)C(=O)COC(F)(F)F)CCC1 [Compound 573, N1-(3-fluorobicyclo[1.1.1]pentan-1-yl)-N2-((S)-3-(1-methylcyclobutyl)-1-oxo-1-(((S)-3-oxo-1-((S)-2-oxopyrrolidin-3-yl)-4-(trifluoromethoxy)butan-2-yl)amino)propan-2-yl)oxalamide]
Second: CC(C)(C)NC(=O)C(=O)N1CC2(CCC2)CC1C(=O)N[C@@H](C[C@@H]1CCNC1=O)C(=O)COC(F)(F)F (stereo partly drawn) [Compound 511, 6-(2-(tert-butylamino)-2-oxoacetyl)-N-((S)-3-oxo-1-((S)-2-oxopyrrolidin-3-yl)-4-(trifluoromethoxy)butan-2-yl)-6-azaspiro[3.4]-octane-7-carboxamide]
The EC50 of the first is lower: less than 0.05 µM for the first, 0.05 to 0.2 µM for the second.

First: CC(C)[C@H](O)CC(=O)N1CC2(CC2)C[C@H]1C(=O)N[C@@H](C[C@@H]1CCNC1=O)C(=O)COC(F)(F)F [Compound 431, (S)-5-((R)-3-hydroxy-4-methylpentanoyl)-N-((S)-3-oxo-1-((S)-2-oxopyrrolidin-3-yl)-4-(trifluoromethoxy)butan-2-yl)-5-azaspiro[2.4]heptane-6-carboxamide]
Second: CC(C)C[C@@H](O)C(=O)N1C[C@@H](CC2CCC2)C[C@H]1C(=O)N[C@@H](C[C@@H]1CCNC1=O)C(=O)COC(F)(F)F [Compound 772, (2S,4S)-4-(cyclobutylmethyl)-1-((R)-2-hydroxy-4-methylpentanoyl)-N-((S)-3-oxo-1-((S)-2-oxopyrrolidin-3-yl)-4-(trifluoromethoxy)butan-2-yl)pyrrolidine-2-carboxamide]
The EC50 of the first is higher: 0.05 to 0.2 µM for the first, less than 0.05 µM for the second.

Same assay, conditions: Severe acute respiratory syndrome coronavirus 2, HeLa-ACE2, 24 h; read-out: EC50, uM (Hela)

`CC(C)C[C@H](NC(=O)C(=O)Nc1ccccc1F)C(=O)N[C@@H](CCCCN)C(=O)COc1c(F)c(F)cc(F)c1F` [Compound 142, N^1—((S)-1-(((S)-7-amino-2-oxo-1-(2,3,5,6-tetrafluorophenoxy)heptan-3-yl)amino)-4-methyl-1-oxopentan-2-yl)-N^2-(2-fluorophenyl)oxalamide hydrochloride] and `CC(C)(C)[C@H](NC(=O)C(F)(F)F)C(=O)N1CC2(CC2)C[C@H]1C(=O)N[C@@H](C[C@@H]1CCNC1=O)C(=O)COC(F)(F)F` [Compound 441, (S)-5-((S)-3,3-dimethyl-2-(2,2,2-trifluoroacetamido)butanoyl)-N—((S)-3-oxo-1-((S)-2-oxopyrrolidin-3-yl)-4-(trifluoromethoxy)butan-2-yl)-5-azaspiro[2.4]heptane-6-carboxamide] cannot be ordered by EC50: less than 0.05 µM for the first, less than 0.05 µM for the second.
